Experimental data from US20260015436A1, “ANTIBODIES FOR CHELATED RADIONUCLIDES” (Hoffmann-La Roche Inc., priority 2018, published 2026).

Experiments:
BxPC3 tumors = experiment: Protocol 95: TCMC saturation, CA amount and ^212Pb activity on tumor-associated radioactivity; type: in vivo, mice; details: no clearing agent
Description: In this study, nine different clearing agents based on dextran-500 were compared in terms of inhibition of ^212Pb-DOTAM association to tumors. More specifically, the experiment assessed the impact on tumor-associated radioactivity from i) TCMC saturation, ii) clearing agent-to-antibody ratio, and iii) production/purification method. In addition, the tumor uptake was compared after injection of 10 or 30 μCi of ^212Pb-DOTAM, without pretargeting or CA, to assess whether radioactivity saturation of the tumor was achieved already at the lower dose.
PRIT-0165 (100 μg per 100 μL) was administered i.v., followed three days later by dextran-500-based clearing reagents (10-170 μg per 100 μL) with varying TCMC substitution (10-100%). Groups J and K received PBS instead of clearing agent. Two hours later, mice were injected i.v. with 100 μL of the respective ^212Pb-DOTAM solutions (10 or 30 μCi).
Mice were sacrificed and necropsied 24 hours after injection of ^212Pb-DOTAM. Blood, bladder, spleen, kidneys, liver, lung, muscle, tail, and tumors were collected, weighed and measured for radioactivity content, and the % ID/g subsequently calculated.

WSU-DLCL2 tumors = experiment: Protocol 162: CD20-PRIT efficacy; type: in vivo, SCID mice; details: multiple injections of 20 μCi (PRIT); result in words
Procedure: The aim of this study was to show proof-of-concept of the treatment regimen developed for CEA-PRIT directed against an alternative target: cluster of differentiation 20 (CD20). The therapeutic efficacy was evaluated after 3 cycles of CD20-PRIT in mice bearing subcutaneous WSU-DLCL2 tumors. Comparisons were also made with: 1-step CD20-RIT, using BsAbs that were pre-incubated with ^212Pb-DOTAM before injection; with rituximab, a type I monoclonal antibody directed against CD20 and a reference in treatment of CD20+ diseases; and with GA101, a type II monoclonal antibody also directed against CD20.
Animals were treated according to the experimental schedule illustrated in FIG. 59. Solid WSU-DLCL2 xenografts were established in SCID mice aged 8 weeks on study day 0 by subcutaneous injection of 1.5×10^5 cells into the right flank. […]
Mice in groups H, I, and L were sacrificed and necropsied for biodistribution purposes 24 hours after their first and only injection of ^212Pb-DOTAM or ^212Pb-DOTAM-BsAb; groups J and K were sacrificed and necropsied 24 hours after their second and third ^212Pb-DOTAM injection, respectively. […] Collected samples were weighed and then measured for radioactivity using a 2470 WIZARD^2 automatic gamma counter (PerkinElmer), and the percent injected dose per gram of tissue (% ID/g) subsequently calculated, including corrections for decay and background. […]

**Q.** With NC(=O)CN1CCN(CC(N)=O)CCN(CC(N)=O)CCN(CC(N)=O)CC1.[212Pb+2] [^212Pb-DOTAM] as the molecule, how does the “tumor accumulation (±SD, n=3)” value (BxPC3 tumors; 10 μCi) read?
**A.** 72.38±10.83 % ID/g

**Q.** What about the “tumor accumulation (±SD, n=3)” value (BxPC3 tumors; 30 μCi) of the same molecule?
**A.** 107.74±14.71 % ID/g

**Q.** And the BW development (WSU-DLCL2 tumors)?
**A.** well tolerated
